Source: PubChem BioAssay (NCI)
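Five compound concentrations were applied to cells in 96-well plates for 48 hours; endpoints were derived by simple linear interpolation of the resulting dose-response curve. TGI is the concentration that stops growth completely.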

What was measured:
Assay in all cases: growth of human tumour cells (NCI), 48 h
[1] = system: SF-295 CNS
[2] = system: KM12 colon
[3] = system: U251 CNS
[4] = system: A549 NSCLC
[5] = system: MDA-MB-231 breast
[6] = system: HL-60(TB) leukemia
[7] = system: UACC-62 melanoma
[8] = system: HCC-2998 colon
[9] = system: UACC-257 melanoma
[10] = system: NCI/ADR-RES ovarian
[11] = system: TK-10 renal
[12] = system: UO-31 renal
[13] = system: SNB-75 CNS
[14] = system: OVCAR-8 ovarian
[15] = system: NCI-H460 lung
[16] = system: PC-3 prostate
[17] = system: SF-539 CNS
[18] = system: NCI-H226 lung
[19] = system: SK-MEL-28 melanoma
[20] = system: HOP-92 NSCLC
[21] = system: MDA-N
[22] = system: M14 melanoma
[23] = system: SK-OV-3 ovarian
[24] = system: EKVX NSCLC
[25] = system: SF-268 CNS
[26] = system: MCF7 breast
[27] = system: HS 578T breast
[28] = system: 786-0 renal
[29] = system: BT-549 breast
[30] = system: ACHN renal
[31] = system: CCRF-CEM leukemia
[32] = system: K-562 leukemia
[33] = system: MOLT-4 leukemia
[34] = system: SN12C renal
[35] = system: DU-145 prostate
[36] = system: COLO 205 colon
[37] = system: CAKI-1 renal
[38] = system: MALME-3M melanoma
[39] = system: OVCAR-5 ovarian
[40] = system: SW-620 colon
[41] = system: SK-MEL-2 melanoma
[42] = system: HCT-15 colon
[43] = system: LOX IMVI melanoma
[44] = system: A498 renal
[45] = system: T-47D breast
[46] = system: HCT-116 colon
[47] = system: HT29 colon
[48] = system: OVCAR-4 ovarian
[49] = system: IGROV1 ovarian
[50] = system: MDA-MB-435
[51] = system: RXF 393 renal
[52] = system: NCI-H23 lung
[53] = system: SNB-19 CNS
[54] = system: OVCAR-3 ovarian
[55] = system: NCI-H522 lung
[56] = system: HOP-62 NSCLC
[57] = system: SK-MEL-5 melanoma

C[C@]12CC[C@@H]3c4cc(Br)c(O)c(Br)c4CC[C@H]3[C@@H]1CC(Br)C2=O (stereo partly specified)
TGI [1]: 33.1 µM | TGI [2]: 15.8 µM | TGI [3]: 12.7 µM | TGI [4]: 38.8 µM | TGI [5]: 75 µM | TGI [6]: 7.52 µM | TGI [7]: 14.8 µM | TGI [8]: 3.73 µM | TGI [9]: 33.5 µM | TGI [10]: 39.5 µM | TGI [11]: 29.4 µM | TGI [12]: 9.03 µM | TGI [13]: 27.9 µM | TGI [14]: 7.83 µM | TGI [15]: 18.8 µM | TGI [16]: 27.2 µM | TGI [17]: 24.4 µM | TGI [18]: 26.6 µM | TGI [19]: 22.3 µM | TGI [20]: 45.6 µM | TGI [21]: 43.5 µM | TGI [22]: > 100 µM | TGI [23]: 30.2 µM | TGI [24]: 39.6 µM | TGI [25]: 26.8 µM | TGI [26]: 29.9 µM | TGI [27]: 82.4 µM | TGI [28]: > 100 µM | TGI [29]: 17.6 µM | TGI [30]: 21.2 µM | TGI [31]: 50.5 µM | TGI [32]: 13.6 µM | TGI [33]: 9.36 µM | TGI [34]: 38.4 µM | TGI [35]: > 100 µM | TGI [36]: > 100 µM | TGI [37]: 15.9 µM | TGI [38]: 34.2 µM | TGI [39]: 73.2 µM | TGI [40]: 9.57 µM | TGI [41]: 27.3 µM | TGI [42]: 10.1 µM | TGI [43]: > 100 µM | TGI [44]: 44.6 µM | TGI [45]: > 100 µM | TGI [46]: > 100 µM | TGI [47]: 10.7 µM | TGI [48]: > 100 µM | TGI [49]: 23.6 µM | TGI [50]: 21.6 µM | TGI [51]: 19.3 µM

O=C(c1ccc(Cl)cc1)N(C(=S)OC12CC3CC(CC(C3)C1)C2)c1ccccc1
TGI [1]: > 100 µM | TGI [2]: > 100 µM | TGI [52]: > 100 µM | TGI [3]: > 100 µM | TGI [4]: > 100 µM | TGI [5]: > 100 µM | TGI [6]: 62.6 µM | TGI [53]: 89.7 µM | TGI [7]: > 100 µM | TGI [54]: > 100 µM | TGI [8]: > 100 µM | TGI [9]: > 100 µM | TGI [10]: > 100 µM | TGI [11]: > 100 µM | TGI [12]: 74.5 µM | TGI [13]: > 100 µM | TGI [14]: > 100 µM | TGI [15]: > 100 µM | TGI [16]: > 100 µM | TGI [17]: > 100 µM | TGI [18]: > 100 µM | TGI [55]: 56.3 µM | TGI [19]: > 100 µM | TGI [20]: > 100 µM | TGI [21]: > 100 µM | TGI [22]: > 100 µM | TGI [23]: > 100 µM | TGI [24]: 66.5 µM | TGI [25]: > 100 µM | TGI [26]: > 100 µM | TGI [27]: > 100 µM | TGI [28]: > 100 µM | TGI [29]: > 100 µM | TGI [30]: > 100 µM | TGI [31]: > 100 µM | TGI [32]: > 100 µM | TGI [33]: 73.5 µM | TGI [34]: > 100 µM | TGI [35]: > 100 µM | TGI [36]: 31.2 µM | TGI [37]: > 100 µM | TGI [38]: > 100 µM | TGI [39]: > 100 µM | TGI [40]: > 100 µM | TGI [56]: > 100 µM | TGI [41]: > 100 µM | TGI [42]: > 100 µM | TGI [57]: > 100 µM | TGI [44]: > 100 µM | TGI [45]: > 100 µM | TGI [46]: > 100 µM | TGI [47]: > 100 µM | TGI [48]: > 100 µM | TGI [50]: > 100 µM | TGI [51]: > 100 µM
